Experimental findings from patent US20110065739A1, “NOVEL ISOXAZOLE DRIVATIVE” (priority 2008, published 2011) are described below.

Where a name gives a salt, the structure may show the parent alone.

The first assay addresses T1, human GPR120 (Homo sapiens, UniProt Q5NUL3).
T1 construct: expressed in transfected cells
T1 sequence (Q5NUL3 1-361): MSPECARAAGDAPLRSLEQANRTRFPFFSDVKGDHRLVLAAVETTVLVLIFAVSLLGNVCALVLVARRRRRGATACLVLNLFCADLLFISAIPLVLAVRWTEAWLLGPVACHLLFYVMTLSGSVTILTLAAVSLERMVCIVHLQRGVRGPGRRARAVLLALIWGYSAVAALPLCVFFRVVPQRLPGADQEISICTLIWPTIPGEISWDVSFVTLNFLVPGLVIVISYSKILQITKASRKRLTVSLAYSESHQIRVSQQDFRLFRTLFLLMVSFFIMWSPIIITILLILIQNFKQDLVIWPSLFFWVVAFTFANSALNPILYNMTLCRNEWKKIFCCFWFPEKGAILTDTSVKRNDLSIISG
The experiment in a line: Measurement of intracellular calcium concentration (FLIPR), GPR120 agonist action. In kind it is cell-based. Conditions: 10 μmol/l test compound, human GPR120 expression CHO cells, Fluo-4 AM. The procedure:
Using Lipofectamine 2000 (Invitrogen), cDNA of GPR120 receptor was transfected into CHO/NFAT-BLA cells, and drug-resistant cells were isolated to obtain GPR120 stable expression strains. The GPR120-expressed CHO cells were cultured in DMEM/F12 medium containing 10% fetal bovine serum, 100 units/ml penicillin, 0.1 mg/ml streptomycin sulfate, 250 μg/ml Zeocin, 500 μg/mL Geneticin and 15 mM HEPES. On the day before the measurement day, 4 μM Fluo-4 AM (fluorescence calcium indicator reagent) was incubated to be introduced into the human GPR120 expression CHO cells plated at 20000 cells per well of a 96-well black plate (ViewPlate; Packard) in the presence of 2.5 mM probenecid in a CO2 incubator for 1 hour. To the cells was added the test compound diluted with HBSS solution containing 20 mM HEPES and 2.5 mM probenecid. Variations in the intracellular calcium concentration were measured by Fluorescence Imaging Plate Reader (FLIPR; Molecular Devices) to examine the agonist action, and EC50 values were calculated.
(In general: A change in cytosolic calcium serves as a functional read-out for many receptors and channels.)
With `CC(C)Oc1cccc(C[C@@H](C)Oc2ccc(-c3cc(O)no3)cc2)c1` [Example 20], the “Agonistic activity at 10 μmol/l (%)” value was 94%. Still for that read-out and setting: then `CC(C)Oc1cccc(CC(C)Oc2ccc(-c3cc(O)no3)c(F)c2)c1` (centres unmarked) [Example 6, 5-{2-fluoro-4-[2-(3-isopropoxyphenyl)-1-methylethoxy]phenyl}isoxazol-3-01], with 98%. The same measure, in the same setting: then `CC(Cc1ccc(-c2cc(O)no2)cc1)Oc1cccc(OC(F)(F)F)c1` (centres unmarked) [Example 19], with 96%; and `CC(C)Oc1cc(CC(C)Oc2ccc(-c3cc(O)no3)cc2)ccn1.Cl` (centres unmarked) [Example 62], with 99%; and “5-(4-(2-(3-isopropoxyphenyl)propoxy)phenyl)-isoxazol-3-ol [Example 33]”, with 84%.

Consider `C[C@H](Cc1cccc(OC2CC2)c1)Oc1ccc(-c2cc(O)no2)cc1` [Example 22, 5-[4-({(1R)-1-methyl-2-[3-(cyclopropyloxy)phenyl]-1-methylethyl]oxy)phenyl}isoxazol-3-ol], for which the “Agonistic activity at 10 μmol/l (%)” value was determined as 93%.

As to “5-(4-(2-(4-methylphenoxy)propyl)phenyl)isoxazol-3-ol [Example 14]”, the “Agonistic activity at 10 μmol/l (%)” value was 101%. For the compound “5-(4-(2-(3-ethylphenyl)-1-methylethoxy)phenyl)isoxazol-3-ol [Example 35]”, the “Agonistic activity at 10 μmol/l (%)” value was determined as 98%. Same read-out and setting: the value for `COc1cccc(C(F)COc2ccc(-c3cc(O)no3)cc2)c1` (centres unmarked) [Example 2, 5-(4-(2-fluoro-2-(3-methoxyphenyl)ethoxy)phenyl)isoxazol-3-61] was 110%; that for `CC(Cc1ccc(-c2cc(O)no2)cc1)Oc1ccc(Cl)cc1` (centres unmarked) [Example 16, 5-(4-(2-(4-chlorophenoxy)propyl)phenyl)isoxazol-3-01] was 96%.

As to `CC(Cc1ccc(-c2cc(O)no2)cc1)Oc1ccc(Cl)cc1Cl` (centres unmarked) [Example 18, 5-(4-(2-(2,4-dichlorophenoxy)propyl)phenyl)isoxazol-3-01], the “Agonistic activity at 10 μmol/l (%)” value is reported as 97%.

“5-{4-[(2,2-difluoro-2-{3-[(1-methylethyl)oxy]phenyl}ethyl)oxy]phenyl}isoxazol-3-ol [Example 30]”: the “Agonistic activity at 10 μmol/l (%)” value is listed as 91%. Take `CC(C)Oc1cccc(C[C@@H](C)Oc2ncc(-c3cc(O)no3)cn2)c1` [Example 32, 5-{2-[((1R)-1-methyl-2-{3-[(1-methylethyl)oxy]phenyl}ethyl)oxy]pyrimidin-5-yl}isoxazol-3-01]: the “Agonistic activity at 10 μmol/l (%)” value was determined as 91%.

Consider `Cc1cccc(OC(C)Cc2ccc(-c3cc(O)no3)cc2)c1` (centres unmarked) [Example 11, 5-(4-(2-(3-methylphenoxy)propyl)phenyl)isoxazol-3-01], for which the “Agonistic activity at 10 μmol/l (%)” value is given as 91%.

Staying with this assay, now noted: 10 μmol/l test compound, human GPR120 expression CHO cells, Fluo-4 AM, read-out: Agonistic activity at 10 μmol/l (%).
Take `CC(C)Oc1cccc(OC(C)Cc2ccc(-c3cc(O)no3)cc2)c1` (centres unmarked) [Example 52, 5-{4-[2-(3-isopropoxyphenoxy)propyl]phenyl}isoxazol-3-ol]: the activation at 10 µM was 96%. As to `CC(C)Oc1cccc(C(=O)COc2ccc(-c3cc(O)no3)cc2)c1` [Example 42, 2-[4-(3-hydroxyisoxazole-5-yl)phenoxy]-1-(3-isopropoxyphenyl)ethanone], the activation at 10 µM came to 98%. Same read-out and setting: the value for `CCOc1cccc(CC(C)Oc2ccc(-c3cc(O)no3)c(F)c2)c1` (centres unmarked) [Example 37, 5-{2-fluoro-4-[2-(3-ethoxyphenyl)-1-methylethoxy]phenyl}isoxazol-3-ol] was 97%. The same measure, in the same setting: the value for `CC(C)Oc1cccc(C[C@@H](C)Oc2ccc(-c3cc(O)no3)cn2)c1` [Example 26, 5-{6-[((1R)-1-methyl-2-{3-[(1-methylethyl)oxy]phenyl}ethyl)oxy]pyridin-3-yl}isoxazol-3-ol Hydrochloride] was 100%. The same measure, in the same setting: the value for `CC(C)Oc1cccc(CN(C)Cc2ccc(-c3cc(O)no3)cc2)c1` [Example 9, 5-(4-(((3-isopropoxybenzyl)(methyl)amino)methyl)phenyl)isoxazol-3-ol] was 100%.

Turning to `CC(C)Oc1cccc(N(C)CCc2ccc(-c3cc(O)no3)cc2)c1` [Example 48, N-{2-[4-(3-hydroxyisoxazol-5-yl)phenyl]ethyl}-3-isopropoxy-N-methylaniline Trifluoroacetate], the activation at 10 µM amounted to 92%. Still for that read-out and setting: then `CC(C)Oc1cccc(CCN(C)c2ccc(-c3cc(O)no3)cc2)c1` [Example 60, 4-(3-hydroxyisoxazol-5-yl)-N-[2-(3-isopropoxyphenyl)ethyl]-N-methylaniline Trifluoroacetate], with 65%; and `CC(C)Oc1cccc(C(F)(F)COc2ccc(-c3cc(O)no3)cc2)c1` [Example 36, 5-(4-(2,2-difluoro-2-(3-isopropoxyphenyl)ethoxy)phenyl)isoxazol-3-ol], with 100%. Same read-out and setting: then `COc1cc(-c2cc(O)no2)ccc1OC(C)Cc1cccc(OC(C)C)c1` (centres unmarked) [Example 61, 5-{4-[2-(3-isopropoxyphenyl)-1-methylethoxy]-3-methoxyphenyl}isoxazol-3-ol], with 79%; and `CC(C)Oc1cccc(CC(C)Oc2ccc(-c3cc(O)no3)nc2)c1` (centres unmarked) [Example 8, 5-(5-(2-(3-isopropoxyphenyl)-1-methylethoxy)pyridin-2-yl)isoxazol-3-ol], with 96%. On the same count and under the same terms, then `C[C@H](Cc1ccc(OC(F)(F)F)cc1)Oc1ccc(-c2cc(O)no2)cc1` [Example 24, 5-{4-[((1R)-1-methyl-2-{4-[(trifluoromethyl)oxy]phenyl}ethyl)oxy]phenyl}isoxazol-3-ol], with 86%; and `CC(C)Oc1cccc(C[C@H](C)Oc2ccc(-c3cc(O)no3)cn2)c1` [Example 27, 5-{6-[((1S)-1-methyl-2-{3-[(1-methylethyl)oxy]phenyl}ethyl)oxy]pyridin-3-yl}isoxazol-3-ol Hydrochloride], with 99%.

In the case of `CC(Cc1cccc(N(C)C)c1)Oc1ccc(-c2cc(O)no2)cc1` (centres unmarked) [Example 45, 3-{2-[4-(3-hydroxyisoxazol-5-yl)phenoxy]propyl}-N,N-dimethylaniline Hydrochloride], the activation at 10 µM stood at 85%. With `CC(C)Oc1cccc(C[C@H](C)Oc2ccc(-c3cc(O)no3)cc2)c1` [Example 21, 5-{4-[((1S)-1-methyl-2-{3-[(1-methylethyl)oxy]phenyl}ethyl)oxy]phenyl}isoxazol-3-ol], the activation at 10 µM was 95%. Same read-out and setting: the value for `CC(C)Oc1cccc(C(C)SCc2ccc(-c3cc(O)no3)cc2)c1` (centres unmarked) [Example 50, 5-[4-({[1-(3-isopropoxyphenyl)ethyl]thio}methyl)phenyl]isoxazol-3-ol] was 80%. Same read-out and setting: then `CC(C)Oc1cccc(C(=O)C(C)Oc2ccc(-c3cc(O)no3)cc2)c1` (centres unmarked) [Example 46, 2-[4-(3-hydroxyisoxazol-5-yl)phenoxy]-1-(3-isopropoxyphenyl)propan-1-one], with 91%; and `CC(C)Oc1cccc(C(C)(C)COc2ccc(-c3cc(O)no3)c(F)c2)c1` [Example 38, 5-{2-fluoro-4-[2-(3-isopropoxyphenyl)-2-methylpropoxy]phenyl}isoxazol-3-ol], with 92%. On the same count and under the same terms, the value for `CC(C)Oc1cccc(SC(C)Cc2ccc(-c3cc(O)no3)cc2)c1` (centres unmarked) [Example 55, 5-(4-{2-[(3-isopropoxyphenyl)thio]propyl}phenyl)isoxazol-3-ol] was 101%; that for `CC(C)Oc1cccc(CN(C)C(C)c2ccc(-c3cc(O)no3)cc2)c1` (centres unmarked) [Example 49, 1-[4-(3-hydroxyisoxazol-5-yl)phenyl]-N-(3-isopropoxybenzyl)-N-methylethanamine Trifluoroacetate] was 84%; that for `COc1cccc(OC(C)Cc2ccc(-c3cc(O)no3)cc2)c1` (centres unmarked) [Example 12, 5-(4-(2-(3-methoxyphenoxy)propyl)phenyl)isoxazol-3-ol] was 95%. Turning to `CC(C)Oc1cccc(CC(C)Oc2ccc(-c3cc(O)no3)cc2)c1` (centres unmarked) [Example 1, 5-(4-(2-(3-isopropoxyphenyl)-1-methylethoxy)phenyl)isoxazol-3-ol], the activation at 10 µM was 104%. Still for that read-out and setting: the value for `CC(C)Oc1cccc(C(C)COc2ccc(-c3cc(O)no3)cn2)c1` (centres unmarked) [Example 40, 5-(6-(2-(3-isopropoxyphenyl)propoxy)pyridin-3-yl)isoxazol-3-ol] was 95%.

`CC(Cc1cccc(OC(C)C)c1)Nc1ccc(-c2cc(O)no2)cc1` (centres unmarked) [Example 59, 4-(3-hydroxyisoxazol-5-yl)-N-[2-(3-isopropoxyphenyl)-1-methylethyl]aniline Trifluoroacetate]: the activation at 10 µM is 96%. For `CC(C)Oc1cc(C[C@H](C)Oc2ccc(-c3cc(O)no3)cc2)ccn1` [Example 63, 5-(4-(((1S)-1-methyl-2-(2-((1-methylethyl)oxy)pyridin-4-yl)ethyl)oxy)phenyl)isoxazol-3-ol Sodium Salt], the activation at 10 µM turned out to be 106%.
